This passage reports mortality results from patent US9549560B2, “Pesticidal compositions and related methods” (DOW AGROSCIENCES LLC, priority 2013, dated 2017).

In assay [1] the test system is Sweetpotato Whitefly-Crawler (Bemisia tabaci). Put plainly: Insecticidal test for Sweetpotato Whitefly-Crawler (WF) (BEMITA) in foliar spray assay on cotton plants. Type of assay: in vivo. Conditions: 216 h, 200 ppm foliar spray, graded after 9 days, Abbott corrected % control, read-out: % Control (or Mortality) rating, WF.
Assay [2] relates to Green Peach Aphid (Myzus persicae). Description: Bioassay for Green Peach Aphid (GPA) (MYZUPE), foliar spray on cabbage seedlings. Type of assay: in vivo. The note with it: 72 h, 200 ppm foliar spray, graded after three days, Abbott corrected % control, read-out: % Control (or Mortality) rating, GPA.

On to `CCN(C(=O)C(C)CSC)c1cn(-c2ccc[n+]([O-])c2)nc1Cl` (stereo not drawn) [Compound F10, 3-(3-Chloro-4-(N-ethyl-2-methyl-3-(methylthio)propajamido)-1H-pyrazol-1-yl)pyridine 1-oxide], for which the mortality at 200 ppm in assay [1] and in assay [2] was 80 to 100% each time.
Turning to `CCN(C(=O)CCS(=O)(=O)CCC(F)(F)F)c1cn(-c2ccc[n+]([O-])c2)nc1Cl` [Compound F13, 3-(3-chloro-4-(N-ethyl-3-((3,3,3-trifluoropropyl)sulfonyl)propanamido)-1H-pyrazol-1-yl)pyridine 1-oxide], the mortality at 200 ppm in assay [1] and in assay [2] was 80 to 100% each time.
On to `CCN(C(=O)CCSCC1CC1(F)F)c1cn(-c2cc(F)c[n+]([O-])c2)nc1Cl` (stereo not drawn) [Compound P92, 3-(3-Chloro-4-(3-(((2,2-difluorocyclopropyl)methyl)thio)-N-ethylpropanamido)-1H-pyrazol-1-yl)-5-fluoropyridine 1-oxide], for which the mortality at 200 ppm in assay [1] and in assay [2] was 80 to 100% in each case.
As for `CCN(C(=O)CCSCCCC(F)(F)F)c1cn(-c2ccc[n+]([O-])c2)nc1C` [Compound P80, 3-(4-(N-Ethyl-3-((4,4,4-trifluorobutyl)thio)propanamido)-3-methyl-1H-pyrazol-1-yl)pyridine 1-oxide], the mortality at 200 ppm in assay [1] and in assay [2] was 80 to 100% in each case.
Consider `CCN(C(=O)CCSCCCC(F)(F)F)c1cn(-c2cc(F)c[n+]([O-])c2)nc1Cl` [Compound P98, 3-(3-Chloro-4-(N-ethyl-3-((4,4,4-trilluorobutyl)thio)propanamido)-1H-pyrazol-1-yl)-5-fluoropyridine 1-oxide], for which the results for the mortality at 200 ppm in assay [1] and in assay [2] were 80 to 100% and 0 to 80%, respectively.
The corresponding values for `C#CCN(C(=O)CCSCCCC(F)(F)F)c1cn(-c2ccc[n+]([O-])c2)nc1Cl` [Compound P71, 3-(3-Chloro-4-(N-(prop-2-yn-1-yl)-3-((4,4,4-trifluorobutyl)thio)propanamido)-1H-pyrazol-1-yl)pyridine 1-oxide] are 80 to 100% and 80 to 100%.
Taken in the same sequence, the figures for `CCN(C(=O)CCSCCC(F)(F)F)c1cn(-c2ccc[n+]([O-])c2)nc1Cl` [Compound F5, 3-(3-chloro-4-(N-ethyl-3-((3,3,3-trifluoropropyl)thio)propanamido)-1H-pyrazol-1-yl)pyridine 1-oxide] were 80 to 100% and 80 to 100%.
In the case of `CCN(C(=O)C(C)[S+]([O-])CC(F)(F)F)c1cn(-c2ccc[n+]([O-])c2)nc1Cl` (stereo not drawn) [Compound F7, 3-(3-Chloro-4-(N-ethyl-2-((2,2,2-trifluoroethyl)sulfinyl)propanamido)-1H-pyrazol-1-yl)pyridine 1-oxide], the mortality (as a rule, the percentage killed) at 200 ppm in assay [1] was in the range of 0 to 80%; in assay [2], 80 to 100%.
Taken in the same sequence, the figures for `CCN(C(=O)CCSCC1CC1(F)F)c1cn(-c2ccc[n+]([O-])c2)nc1C` (stereo not drawn) [Compound P74, 3-(4-(3-(((2,2-Difluorocyclopropyl)methyl)thio)-N-ethylpropanamido)-3-methyl-1H-pyrazol-1-yl)pyridine 1-oxide] were 80 to 100% and 80 to 100%.
With `CCN(C(=O)CCSCC(F)(F)F)c1cn(-c2ccc[n+]([O-])c2)nc1Cl` [Compound P50, 3-(3-chloro-4-(N-ethyl-3-((2,2,2-trifluoroethyl)thio)propanamido)-1H-pyrazol-1-yl)pyridine 1-oxide], the mortality at 200 ppm in assay [1] and in assay [2] was 80 to 100% in each case.
Consider `CCN(C(=O)C(C)C[S+]([O-])CCC(F)(F)F)c1cn(-c2ccc[n+]([O-])c2)nc1Cl` (stereo not drawn) [FA9, 3-(3-Chloro-4-(N-ethyl-2-methyl-3-((3,3,3-trifluoropropyl)sulfinyl)propanamido)-1H-pyrazol-1-yl)pyridine 1-oxide], for which the mortality at 200 ppm in assay [1] and in assay [2] was 80 to 100% throughout.
As for `CCN(C(=O)CS(C)(=O)=O)c1cn(-c2ccc[n+]([O-])c2)nc1Cl` [FA11, 3-(3-chloro-4-(N-ethyl-2-(methylsulfonyl)acetamido)-1H-pyrazol-1-yl)pyridine 1-oxide], the mortality at 200 ppm in assay [1] was 0 to 80%; in assay [2] it was 80 to 100%.
On to `CCN(C(=O)C(C)CSCCC(F)(F)F)c1cn(-c2cc(F)c[n+]([O-])c2)nc1Cl` (stereo not drawn) [FA2, 3-(3-Chloro-4-(N-ethyl-2-methyl-3-((3,3,3-trifluoropropyl)thio)propanamido)-1H-pyrazol-1-yl)-5-fluoropyridine 1-oxide], for which the mortality at 200 ppm in assay [1] and in assay [2] was 80 to 100% throughout.
Take `CNc1cn(-c2ccc[n+]([O-])c2)nc1Cl` [CA3, 3-(3-Chloro-4-(methylamino)-1H-pyrazol-1-yl)pyridine 1-oxide]: the mortality at 200 ppm was 0 to 80% in assay [1] and 80 to 100% in assay [2].
For the molecule `CCN(C(=O)CC[S+]([O-])CCCC(F)(F)F)c1cn(-c2ccc[n+]([O-])c2)nc1Cl` (stereo not drawn) [Compound P54, 3-(3-Chloro-4-(N-ethyl-3-((4,4,4-trilluorobutyl)sulfinyl)propanamido)-1H-pyrazol-1-yl)pyridine 1-oxide], the mortality at 200 ppm in assay [1] and in assay [2] was 80 to 100% each time.
